Results published in patent US20210330774A1, “HERV-K-DERIVED ANTIGENS AS SHARED TUMOR ANTIGENS FOR ANTI-CANCER VACCINE” (CENTRE LEON BERARD, priority 2018, published 2021).

Experiments:
Type in all cases: cell-based, human
[1] = test system: CD8+ T cells; assay: Dextramer assay after 12-day peptide stimulation of PBMCs from HLA-A2 donors; conditions: for dextramer positive CD8+ T cells: representative plot, day 12, peptide-stimulated PBMCs; for ability to elicit a specific CD8+ T cell response: summary statement; for increase in dextramer positive CD8+ T cells, peptide stimulated versus non stimulated: FIG. 4B, 12 different donors, day 12
[2] = test system: T2 cells pulsed with HERV peptide; assay: Cytotoxicity assay with T2 cells contact (intracellular IFN-γ of CD8+ T cells, FACS); conditions: for IFN-γ production, percentage of CD8+ T cells (in median): FIG. 3B, 5 different donors, day 12, T2 cells pulsed with cognate peptide; for IFN-γ production, number of CD8+ T cells: FIG. 5B, 12 different donors, day 12
Procedure: On day 12 of PBMCs culture, T2 cells were washed in RPMI and resuspended into AIM-V medium (Thermo Fisher Scientific). T2 (SD Cell line) are a lymphoblast cell line deficient in the transporter associated with antigen processing (TAP) protein, and therefore cannot present endogenous peptides on the class I MHC, but can be used to monitor the CTL response to an exogenous antigen of interest in a non-competitive environment. T2 cells were first pulsed with HERV peptide by adding 10 μg/mL of corresponding peptide to 2M T2 cell for 2 hours at 37° C. PBMCs were pooled and counted and put in co-culture with corresponding T2 cells at a respective concentration of 1:5 into a new 96 U-well plate.
After 4 hours of incubation at 37° C., cells from co-culture were washed and pooled in V-well plate according to their staining condition in FACS buffer. Zombie NIR (Biolegend) was used at 1/400 to assess viability. Anti CD3 (PercP, Biolegend) and anti CD8 (FITC, Beckman coulter) antibodies were added 1/10 per condition and left for 25 minutes at 4° C. Cells were washed again and then fixed with fixation/permeabilization solution kit (Invitrogen, Carlasbad, USA) according to the manufacturer's instructions for 15 minutes at room temperature. Cells were washed two times in FACS buffer and kept at 4° c.
On day 13, cells were permeabilized with the permeabilization solution kit (Invitrogen) for 5 minutes at room temperature and anti IFN-γ (PE, Biolegend) antibody was added 1/20 to the solution for additional 25 minutes at 4° C. Cells were washed two times and resuspended in 350 μL of FACS buffer before FACS analysis. Analysis was performed on FACS Fortessa (BD) to explore the specific cytotoxicity and degranulation against T2 cells expressing HERV sequences.

[3] = test system: T2 cells pulsed with the cognate peptide; assay: ELISPOT for IFN-γ and Granzyme-β of peptide stimulated PBMCs co-cultured with T2 cells; conditions: 2.10^5 cells per well, ratio 10:1 with T2 cells, revealed after 24h
Procedure: C. Representative histograms of the number of IFN-γ+ and Granzyme-I3+ spots after 12 days stimulation and following 24h of contact with T2 cells pulsed with the cognate peptide.
Peptide stimulated PBMCs after the 12-day culture were used to perform an ELISPOT assay for IFN-γ and Granzyme-β (FIG. 2C). 2.10^5 cells per well were put in co-culture with T2 cell specific for the peptide of interest in a ratio 10:1.

[4] = test system: CD8+ T cells expanded from TNBC and ovarian tumor dilacerate; assay: Dextramer staining of tumor infiltrated lymphocytes (TILs) from TNBC and ovarian cancer; conditions: day 14, FIG. 7
Procedure: Tumors were dilacerated in small pieces and digested with collagenase IV and DNAse for 45 minutes. The cells obtained were resuspended in 5% human serum RPMI and distributed in 96 well (5.10^4 cells per well). Anti-CD3/CD28 microbeads (Miltenyi biotech) were added to the well in a ratio of 1:4 with cells in the presence of IL-2 (F.C. 100 IU/ml). TILs were cultured for 14 days by changing medium at day 5, 7, 9 and 12 and the number of the cells was adapted to have 0.5×10^6 cells/ml.
At day 14 a dextramer staining was performed (see dextramer assay paragraph) for the 7 peptides of interest (P1 to P7—SEQ ID NO: 1 to 7) and dextramer specific CD8+ T cells were identified by FACS analysis in TNBC (FIG. 7A) and ovarian cancer (FIG. 7B).

Sequence | dextramer positive CD8+ T cells ([1]; FIG. 2A) | ability to elicit a specific CD8+ T cell response [1] | IFN-γ production, percentage of CD8+ T cells (in median) [2] | IFN-γ production, number of CD8+ T cells [2] | specific IFN-γ and Granzyme-β spots [3] | dextramer positive CD8+ T cells ([1]; FIG. 4A) | increase in dextramer positive CD8+ T cells, peptide stimulated versus non stimulated [1] | frequency of specific CD8+ T cells in the tumors [4]
AMIPKDWPL (HERV epitope 5) [P5] | 34.2% | able to elicit a specific CD8+ T cell response |  |  |  |  |  | 
FLQFKTWWI (HERV epitope) [P1] |  | able to elicit a specific CD8+ T cell response | ~10% | significant number | specific IFN-γ and Granzyme-β spots | 0.63% | significant increase | more frequently represented
KLIDCYTFL (epitope 3) [P3] |  | able to elicit a specific CD8+ T cell response | ~5% | significant number |  |  | slightly | 
RLIPYDWEI (epitope 2) [P2] |  | able to elicit a specific CD8+ T cell response | ~5% | significant number |  |  | slightly | 
SMDDQLNQL (HERV epitope 7) [P7] |  | able to elicit a specific CD8+ T cell response |  |  |  |  |  | 
YAMSNLFSI (HERV epitope 6) [P6] |  | able to elicit a specific CD8+ T cell response |  | moderate number | specific IFN-γ and Granzyme-β spots |  | significant increase | more frequently represented
YLSFIKILL (HERV epitope 4) [P4] |  | able to elicit a specific CD8+ T cell response |  |  |  |  | significant increase | 
